Activity data for 1 compound are collected here from ChEMBL document CHEMBL5608184, “Discovery and mechanistic insights into thieno[3,2-d]pyrimidine and heterocyclic fused pyrimidines inhibitors targeting tubulin for cancer therapy” (Eur J Med Chem, 2024).

The subject of test [1] is SK-OV-3. Kind of test: Induction of apoptosis in human SK-OV-3 cells assessed as necrotic cells at 2.5 nM incubated for 48 hrs by Annexin V-APC-A/7-AAD-A staining based flow cytometry (reference value: 0.21 %). The class given is functional. A general note: Flow cytometry measures light scatter and fluorescence of single cells or particles in a stream.
The subject of test [2] is SK-OV-3. As to the kind of experiment: Inhibition of cell migration in human SK-OV-3 cells assessed as relative wound density at 2.5 nM incubated for 24 hrs by wound healing assay (reference value: 61.61 %). The class given is functional. Details: scale not given: the % may be the effect or the level left.

In the case of `COc1ccc(N(C)c2nc(Cl)nc3ccn(C)c23)cc1`, the Activity was 1.17% in test [1] and 6.33% in test [2].
